Here are results for 22 molecules from ChEMBL document CHEMBL1138752, “2-Pyrazolyl-N(6)-substituted adenosine derivatives as high affinity and selective adenosine A(3) receptor agonists” (J Med Chem, 2004).

The target in assay [1] is T1, Adenosine receptor A3 (Homo sapiens, UniProt P0DMS8).
T1 sequence (P0DMS8 whole entry): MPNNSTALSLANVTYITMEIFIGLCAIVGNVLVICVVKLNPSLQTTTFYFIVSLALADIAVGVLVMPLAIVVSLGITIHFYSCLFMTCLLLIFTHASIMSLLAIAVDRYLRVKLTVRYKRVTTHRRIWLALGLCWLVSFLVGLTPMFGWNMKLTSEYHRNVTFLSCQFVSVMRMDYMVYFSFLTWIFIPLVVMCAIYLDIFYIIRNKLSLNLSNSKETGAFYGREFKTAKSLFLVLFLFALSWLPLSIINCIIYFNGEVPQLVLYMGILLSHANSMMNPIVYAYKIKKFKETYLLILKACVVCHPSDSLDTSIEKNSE
Description: biochemical.
Description: Displacement of [125I]-AB MECA from recombinant human adenosine A3 receptor expressed in HEK cells

Assay [2] addresses Adenosine receptors; A1 & A3 (Homo sapiens) (UniProt P30542+P0DMS8). Put plainly: Ratio of binding to adenosine A1 and adenosine A3 receptor. The class given is protein assay.
Assay [3] deals with Adenosine receptors; A2a & A3 (Homo sapiens) (UniProt P0DMS8+P29274). Description: Ratio of binding to adenosine A2a and adenosine A3 receptor. The format is protein assay.
For assay [4], the target named is T2, Adenosine receptor A1 (Homo sapiens, UniProt P30542).
T2 sequence (P30542 whole entry): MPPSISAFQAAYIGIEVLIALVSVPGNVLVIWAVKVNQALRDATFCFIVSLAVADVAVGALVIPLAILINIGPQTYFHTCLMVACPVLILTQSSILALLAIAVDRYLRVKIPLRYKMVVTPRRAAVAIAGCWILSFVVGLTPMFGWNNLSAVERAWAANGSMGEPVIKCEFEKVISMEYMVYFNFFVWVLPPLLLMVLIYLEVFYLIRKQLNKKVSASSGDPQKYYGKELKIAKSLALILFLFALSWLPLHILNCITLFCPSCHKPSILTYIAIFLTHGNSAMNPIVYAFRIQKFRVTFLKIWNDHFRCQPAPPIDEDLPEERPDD
Description: biochemical.
Description: Displacement of [3H]CCPA from recombinant human adenosine A1 receptor expressed in CHO cells

Assay [5] deals with Adenosine receptor A2a (Homo sapiens, UniProt P29274). Description: biochemical.
Chain of Adenosine receptor A2a (P29274 whole entry): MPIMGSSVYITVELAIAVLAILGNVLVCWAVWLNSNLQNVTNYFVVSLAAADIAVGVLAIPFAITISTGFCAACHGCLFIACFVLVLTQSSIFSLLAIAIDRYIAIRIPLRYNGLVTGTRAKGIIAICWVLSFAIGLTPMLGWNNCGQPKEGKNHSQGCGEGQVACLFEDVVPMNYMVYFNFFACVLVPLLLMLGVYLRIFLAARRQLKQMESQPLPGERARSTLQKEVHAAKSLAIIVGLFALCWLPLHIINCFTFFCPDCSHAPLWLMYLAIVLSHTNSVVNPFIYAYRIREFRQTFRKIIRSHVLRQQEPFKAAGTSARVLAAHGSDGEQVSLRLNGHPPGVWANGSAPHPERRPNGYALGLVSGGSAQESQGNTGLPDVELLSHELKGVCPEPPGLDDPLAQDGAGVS
Description: Displacement of [3H]CGS-21680 from recombinant human adenosine A2a receptor expressed in HEK cells

Chain of Adenosine receptors; A2a & A3 (Homo sapiens) (P29274 whole entry, looked up, one chain of several): as the sequence (P29274 whole entry) above

On to `CNc1nc(-n2cc(-c3nc4ccccc4o3)cn2)nc2c1ncn2C1O[C@H](CO)[C@@H](O)[C@H]1O` (stereo partly specified), for which the inhibition constant (Ki) (commonly the dissociation constant of the complex between target and ligand, obtained from inhibition or displacement) was 0.002 µM in assay [1], 2.6 µM in assay [4] and 2.5 µM in assay [5]. The Selectivity was found to be 1300 in assay [2] and 1200 in assay [3].

For `CNc1nc(-c2cnn(Cc3ccccc3)c2)nc2c1ncn2C1O[C@H](CO)[C@@H](O)[C@H]1O` (stereo partly specified), the values for the Ki in assay [1], in assay [4] and in assay [5] were 0.097 µM, 1.3 µM and more than 5 µM, respectively. Also, the Selectivity in assay [2] was 13; in assay [3], more than 50.

Take `CNc1nc(-n2cc(-c3ccc(Cl)cc3)cn2)nc2c1ncn2C1O[C@H](CO)[C@@H](O)[C@H]1O` (stereo partly specified): the figures for the inhibition constant Ki in assay [1], in assay [4] and in assay [5] were 0.01 µM, more than 6 µM and more than 5 µM, respectively. Also, the Selectivity in assay [2] is more than 600; in assay [3], more than 500.

As to `CNc1nc(-n2cc(-c3ccccn3)cn2)nc2c1ncn2[C@@H]1O[C@H](CO)[C@@H](O)[C@H]1O`, the Ki in assay [5] was more than 5 µM.

Molecule `CCCNc1nc(-c2cnn(Cc3ccccc3)c2)nc2c1ncn2C1O[C@H](CO)[C@@H](O)[C@H]1O` (stereo partly specified) came in with a Ki in assay [1] of 0.148 µM. In other words, the sub-micromolar range.

Consider `CNC(=O)c1cnn(-c2nc(NC)c3ncn([C@@H]4O[C@H](CO)[C@@H](O)[C@H]4O)c3n2)c1`, for which the values for the Ki in assay [1] and in assay [5] were 0.073 µM and more than 6 µM, respectively. In addition, the Selectivity in assay [2] and in assay [3] was more than 80 throughout.

Turning to `COc1ccc(-c2cnn(-c3nc(N)c4ncn([C@@H]5O[C@H](CO)[C@@H](O)[C@H]5O)c4n3)c2)cc1`, the Ki in assay [1] was more than 6 µM; in assay [5], 0.19 µM.

With `OC[C@H]1OC(n2cnc3c(NCc4cccc(I)c4)nc(-n4cc(-c5ccccn5)cn4)nc32)[C@H](O)[C@@H]1O` (stereo partly specified), the inhibition constant Ki in assay [1] was 0.17 µM; in assay [4], 4.2 µM; in assay [5], more than 3.9 µM. Also, the Selectivity was 24 in assay [2] and more than 22 in assay [3].

In the case of `CNc1nc(-n2cc(-c3ccc4ccccc4n3)cn2)nc2c1ncn2C1O[C@H](CO)[C@@H](O)[C@H]1O` (stereo partly specified), the Ki was 0.003 µM in assay [1], more than 5 µM in assay [4] and more than 5 µM in assay [5]. In addition, the Selectivity in assay [2] and in assay [3] was more than 1600 in each case.

Take `COc1ccc(-c2cnn(-c3nc(NCc4cccc(I)c4)c4ncn(C5O[C@H](CO)[C@@H](O)[C@H]5O)c4n3)c2)cc1` (stereo partly specified): the Ki amounted to 0.32 µM in assay [1], 4.5 µM in assay [4] and 4 µM in assay [5]. In addition, the Selectivity came out at 14 in assay [2] and 10 in assay [3].

Take `CCNc1nc(-n2cc(-c3ccccn3)cn2)nc2c1ncn2[C@@H]1O[C@H](CO)[C@@H](O)[C@H]1O`: the Ki turned out to be 0.107 µM in assay [1] and 1.8 µM in assay [5].

With `CNc1nc(-n2cc(-c3cccnc3)cn2)nc2c1ncn2C1O[C@H](CO)[C@@H](O)[C@H]1O` (stereo partly specified), the figures for the inhibition constant (Ki) in assay [1], in assay [4] and in assay [5] were 0.002 µM, 1.8 µM and 4.1 µM, respectively. In addition, the Selectivity in assay [2] turned out to be 900; in assay [3] it was 2000.

On to `CNc1nc(-n2cc(-c3ccc(OC)cc3)cn2)nc2c1ncn2[C@@H]1O[C@H](CO)[C@@H](O)[C@H]1O`, for which the results for the Ki in assay [1] and in assay [5] were 0.015 µM and more than 5 µM, respectively. Further, the Selectivity was more than 200 in assay [2] and more than 300 in assay [3].

With `CCCNC(=O)c1cnn(-c2nc(NC)c3ncn(C4O[C@H](CO)[C@@H](O)[C@H]4O)c3n2)c1` (stereo partly specified), the Ki in assay [1] was 0.019 µM; in assay [4] it was more than 4 µM; in assay [5], more than 4 µM. The Selectivity in assay [2] and in assay [3] was more than 200 each time.

`CCNc1nc(-n2cc(-c3ccc(OC)cc3)cn2)nc2c1ncn2[C@@H]1O[C@H](CO)[C@@H](O)[C@H]1O`: the Ki in assay [1] is 0.041 µM; in assay [5], 4 µM. Also, the Selectivity in assay [2] is 90; in assay [3], 100.

For `CNc1nc(-n2cc(C(=O)NCc3ccc(Cl)cc3)cn2)nc2c1ncn2C1O[C@H](CO)[C@@H](O)[C@H]1O` (stereo partly specified), the inhibition constant Ki is 0.157 µM in assay [1], 2 µM in assay [4] and 4 µM in assay [5]. Moreover, the Selectivity in assay [3] amounted to 25.

For the molecule `CNc1nc(-n2cc(-c3ccncc3)cn2)nc2c1ncn2C1O[C@H](CO)[C@@H](O)[C@H]1O` (stereo partly specified), the Ki in assay [1] is 0.006 µM; in assay [4], 3.8 µM; in assay [5] it was more than 5 µM. Further, the results for the Selectivity in assay [2] and in assay [3] were 600 and more than 800, respectively.

The molecule `CCNC(=O)c1cnn(-c2nc(NC)c3ncn(C4O[C@H](CO)[C@@H](O)[C@H]4O)c3n2)c1` (stereo partly specified) showed a Ki in assay [1] of 0.049 µM. That is a double-digit nanomolar value.

On to `CCCNc1nc(-n2cc(-c3ccc(OC)cc3)cn2)nc2c1ncn2C1O[C@H](CO)[C@@H](O)[C@H]1O` (stereo partly specified), for which the Ki in assay [1] came to 0.065 µM; in assay [4] it was 3 µM; in assay [5], 3.3 µM. In addition, the Selectivity stood at 45 in assay [2] and 50 in assay [3].

`Nc1nc(-c2cnn(Cc3ccccc3)c2)nc2c1ncn2[C@@H]1O[C@H](CO)[C@@H](O)[C@H]1O`: the Ki in assay [1] is more than 10 µM; in assay [5], 0.0015 µM.

Regarding `OC[C@H]1OC(n2cnc3c(NCc4cccc(I)c4)nc(-n4cc(-c5nccc6ccccc56)cn4)nc32)[C@H](O)[C@@H]1O` (stereo partly specified), the Ki was determined as 0.109 µM in assay [1], 0.77 µM in assay [4] and 0.052 µM in assay [5]. Further, the Selectivity is 7 in assay [2] and less than 1 in assay [3].

Take `CNC(=O)c1cnn(-c2nc(N)c3ncn([C@@H]4O[C@H](CO)[C@@H](O)[C@H]4O)c3n2)c1` [REGADENOSON ANHYDROUS]: the Ki in assay [1] was more than 10 µM.
